Data taken from article PMC11233931, “Remodeling tumor‐associated macrophage for anti‐cancer effects by rational design of irreversible inhibition of mitogen‐activated protein kinase‐activated protein kinase 2” (MedComm, 2024).

How the values were obtained:
Experiment in all cases: Eurofins kinase selectivity profile against 380 other human recombinant kinases (Table S2)
Type in all cases: biochemical
[1] = target: T1, 380 human recombinant protein kinases (Homo sapiens, UniProt P45983); conditions: JNK1α1(h), read-out: Inhibition rate
T1 construct: purchased Eurofins (Celle Lévescault)
T1 sequence (P45983 whole entry): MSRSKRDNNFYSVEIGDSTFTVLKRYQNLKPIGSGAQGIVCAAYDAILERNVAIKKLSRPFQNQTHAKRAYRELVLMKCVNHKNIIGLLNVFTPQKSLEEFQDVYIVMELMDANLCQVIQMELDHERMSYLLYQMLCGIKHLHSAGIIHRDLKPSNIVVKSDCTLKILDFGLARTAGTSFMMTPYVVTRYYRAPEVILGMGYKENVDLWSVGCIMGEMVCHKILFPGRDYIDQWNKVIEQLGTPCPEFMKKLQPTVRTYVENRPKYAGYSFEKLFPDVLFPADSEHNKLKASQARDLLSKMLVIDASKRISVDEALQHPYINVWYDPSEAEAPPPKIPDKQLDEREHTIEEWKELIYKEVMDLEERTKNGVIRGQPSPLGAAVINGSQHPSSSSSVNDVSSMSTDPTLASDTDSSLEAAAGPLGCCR
Summary of the method: (§1)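 Selectivity panel of 380 human recombinant protein kinases, screened by Eurofins at a range of concentrations.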

[2] = target: T2, 380 human recombinant protein kinases (Homo sapiens, UniProt Q02779); conditions: MLK2(h), read-out: Inhibition rate
T2 construct: purchased Eurofins (Celle Lévescault)
T2 sequence (Q02779 whole entry): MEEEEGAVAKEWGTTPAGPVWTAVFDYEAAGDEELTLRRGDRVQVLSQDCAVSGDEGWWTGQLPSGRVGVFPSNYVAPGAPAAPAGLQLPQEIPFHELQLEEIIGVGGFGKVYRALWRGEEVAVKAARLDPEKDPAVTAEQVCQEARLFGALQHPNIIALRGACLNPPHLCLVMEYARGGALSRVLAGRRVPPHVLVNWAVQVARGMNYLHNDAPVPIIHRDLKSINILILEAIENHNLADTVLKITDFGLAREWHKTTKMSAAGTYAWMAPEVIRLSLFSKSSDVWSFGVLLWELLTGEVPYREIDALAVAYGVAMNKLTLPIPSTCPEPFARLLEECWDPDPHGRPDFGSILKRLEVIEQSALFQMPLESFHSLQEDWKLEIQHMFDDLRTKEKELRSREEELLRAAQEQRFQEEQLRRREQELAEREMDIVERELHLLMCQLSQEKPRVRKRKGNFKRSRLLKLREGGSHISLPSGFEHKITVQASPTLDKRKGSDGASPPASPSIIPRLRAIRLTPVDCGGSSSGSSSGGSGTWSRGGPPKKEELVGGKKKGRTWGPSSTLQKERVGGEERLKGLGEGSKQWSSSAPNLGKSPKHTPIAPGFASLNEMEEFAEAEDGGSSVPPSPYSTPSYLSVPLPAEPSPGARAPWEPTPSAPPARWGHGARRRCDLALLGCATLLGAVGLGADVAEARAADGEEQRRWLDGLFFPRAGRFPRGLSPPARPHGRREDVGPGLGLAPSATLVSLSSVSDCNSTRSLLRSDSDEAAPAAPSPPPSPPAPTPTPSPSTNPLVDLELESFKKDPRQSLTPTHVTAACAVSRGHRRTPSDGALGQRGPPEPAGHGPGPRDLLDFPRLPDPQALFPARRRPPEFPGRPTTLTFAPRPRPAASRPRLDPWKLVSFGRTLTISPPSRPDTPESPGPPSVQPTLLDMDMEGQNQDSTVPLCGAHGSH
Summary of the method: as §1

[3] = target: T3, 380 human recombinant protein kinases (Homo sapiens, UniProt Q15835); conditions: GRK1(h), read-out: Inhibition rate
T3 construct: purchased Eurofins (Celle Lévescault)
T3 sequence (Q15835 1-563): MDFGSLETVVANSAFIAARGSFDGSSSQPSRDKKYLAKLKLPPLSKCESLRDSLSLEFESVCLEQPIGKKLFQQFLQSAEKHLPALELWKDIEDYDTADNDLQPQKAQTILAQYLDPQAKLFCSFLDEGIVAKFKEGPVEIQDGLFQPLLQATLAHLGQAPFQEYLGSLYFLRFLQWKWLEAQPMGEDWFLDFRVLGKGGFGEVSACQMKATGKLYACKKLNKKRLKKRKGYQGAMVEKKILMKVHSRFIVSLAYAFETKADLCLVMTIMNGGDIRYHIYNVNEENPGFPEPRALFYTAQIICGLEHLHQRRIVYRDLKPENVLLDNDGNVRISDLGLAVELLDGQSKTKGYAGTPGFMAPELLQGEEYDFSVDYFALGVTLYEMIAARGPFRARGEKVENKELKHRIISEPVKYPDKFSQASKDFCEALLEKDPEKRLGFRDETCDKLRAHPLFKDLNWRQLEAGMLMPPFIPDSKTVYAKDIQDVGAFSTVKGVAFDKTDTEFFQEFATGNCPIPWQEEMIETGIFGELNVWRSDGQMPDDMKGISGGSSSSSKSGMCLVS
Summary of the method: as §1

[4] = target: T4, 380 human recombinant protein kinases (Homo sapiens, UniProt Q8NE63); conditions: HIPK4(h), read-out: Inhibition rate
T4 construct: purchased Eurofins (Celle Lévescault)
T4 sequence (Q8NE63 1-616): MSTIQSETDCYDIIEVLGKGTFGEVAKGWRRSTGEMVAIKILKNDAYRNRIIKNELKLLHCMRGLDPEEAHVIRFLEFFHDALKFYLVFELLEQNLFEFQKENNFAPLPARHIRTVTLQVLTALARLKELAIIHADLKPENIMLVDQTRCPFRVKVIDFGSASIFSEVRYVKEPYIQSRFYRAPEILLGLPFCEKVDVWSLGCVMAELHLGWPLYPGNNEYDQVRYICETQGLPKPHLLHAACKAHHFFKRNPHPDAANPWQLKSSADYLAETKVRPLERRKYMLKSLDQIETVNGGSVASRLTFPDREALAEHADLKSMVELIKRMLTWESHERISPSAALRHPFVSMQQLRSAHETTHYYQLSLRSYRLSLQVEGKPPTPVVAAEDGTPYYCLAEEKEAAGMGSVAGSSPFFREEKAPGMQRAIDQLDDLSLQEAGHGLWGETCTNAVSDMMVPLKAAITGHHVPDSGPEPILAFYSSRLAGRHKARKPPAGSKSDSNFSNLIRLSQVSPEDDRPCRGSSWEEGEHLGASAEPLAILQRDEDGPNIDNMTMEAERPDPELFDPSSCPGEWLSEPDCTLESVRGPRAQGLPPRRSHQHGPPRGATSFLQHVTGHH
Summary of the method: as §1

[5] = target: T5, 380 human recombinant protein kinases (Homo sapiens, UniProt Q8TF76); conditions: Haspin(h), read-out: Inhibition rate
T5 construct: purchased Eurofins (Celle Lévescault)
T5 sequence (Q8TF76 1-798): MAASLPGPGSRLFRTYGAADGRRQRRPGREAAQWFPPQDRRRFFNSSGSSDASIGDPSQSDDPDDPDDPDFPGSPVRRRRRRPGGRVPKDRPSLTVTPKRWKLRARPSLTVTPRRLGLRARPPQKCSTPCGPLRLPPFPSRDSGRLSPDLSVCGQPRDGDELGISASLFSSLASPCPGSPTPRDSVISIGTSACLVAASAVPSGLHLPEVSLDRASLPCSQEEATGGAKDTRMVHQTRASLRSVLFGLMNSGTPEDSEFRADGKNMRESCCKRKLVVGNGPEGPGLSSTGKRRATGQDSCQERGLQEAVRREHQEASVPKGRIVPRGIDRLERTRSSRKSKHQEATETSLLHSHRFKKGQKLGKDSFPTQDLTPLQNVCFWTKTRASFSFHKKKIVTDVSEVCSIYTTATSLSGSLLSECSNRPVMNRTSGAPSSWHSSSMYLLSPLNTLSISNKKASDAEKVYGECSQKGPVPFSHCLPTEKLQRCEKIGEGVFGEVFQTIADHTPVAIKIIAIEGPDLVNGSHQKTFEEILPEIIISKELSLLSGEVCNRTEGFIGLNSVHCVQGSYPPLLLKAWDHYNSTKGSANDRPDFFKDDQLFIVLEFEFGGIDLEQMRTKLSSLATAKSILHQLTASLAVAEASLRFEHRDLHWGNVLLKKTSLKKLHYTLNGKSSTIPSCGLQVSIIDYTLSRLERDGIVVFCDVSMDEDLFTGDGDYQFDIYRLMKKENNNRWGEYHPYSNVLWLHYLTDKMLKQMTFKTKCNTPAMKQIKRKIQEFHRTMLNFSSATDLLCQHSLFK
Summary of the method: as §1

For C=CC(=O)Nc1cc(-c2cc(-c3cc4c([nH]3)CCNC4=O)ccn2)ccc1OC(F)(F)F [compound 11], the inhibition at 0.01 µM ([1]; 10 nM) was 2%, the inhibition at 0.1 µM ([1]; 100 nM) was 4% and the inhibition at 1 µM ([1]; 1000 nM) was 21%. The inhibition at 0.01 µM ([2]; 10 nM) was -5%, the inhibition at 0.1 µM ([2]; 100 nM) was 2% and the inhibition at 1 µM ([2]; 1000 nM) was 10%. The inhibition at 0.01 µM ([3]; 10 nM) was -6%, the inhibition at 0.1 µM ([3]; 100 nM) was -4% and the inhibition at 1 µM ([3]; 1000 nM) was -1%. The inhibition at 0.01 µM ([4]; 10 nM) was -23%, the inhibition at 0.1 µM ([4]; 100 nM) was -10% and the inhibition at 1 µM ([4]; 1000 nM) was 23%. For the same compound, the inhibition at 0.01 µM ([5]; 10 nM) was 1%, the inhibition at 0.1 µM ([5]; 100 nM) was 11% and the inhibition at 1 µM ([5]; 1000 nM) was 46%.
